From US20220030868A1, “FUNGICIDAL HALOMETHYL KETONES AND HYDRATES” (FMC CORPORATION, priority 2018, published 2022)

How the values were obtained:
Type in all cases: in vivo
Uncinula necator = experiment: Test C: test suspension sprayed on grape seedlings one day before inoculation with Uncinula necator spores (grape powdery mildew), disease rating; conditions: Erysiphe necator, 100 = 100% disease control; for pest or weed control at 50 ppm: 50 ppm test suspension
From the text: General protocol for preparing test suspensions for Tests A-C: the test compounds were first dissolved in acetone in an amount equal to 3% of the final volume and then suspended at the desired concentration (in ppm) in acetone and purified water (50/50 mix by volume) containing 250 ppm of the surfactant PEG400 (polyhydric alcohol esters). The resulting test suspensions were then used in Tests A-C. The test solution was sprayed to the point of run-off on grape seedlings. The following day the seedlings were inoculated with a spore suspension of Uncinula necator (the causal agent of grape powdery mildew) and incubated in a growth chamber at 20° C. for 12 days, after which time disease ratings were made. Results for Tests A-C are given in Table A. In the Table, a rating of 100 indicates 100% disease control and a rating of 0 indicates no disease control (relative to the controls). An asterisk “*” or a double asterisk “**” next to the rating value indicates a 50 ppm or 10 ppm test suspension was used, respectively. A dash (-) indicates the compound was not tested.

Phakopsora pachyrhizi = experiment: Test A: test suspension sprayed on soybean seedlings one day before inoculation with Phakopsora pachyrhizi spores (Asian soybean rust), visual disease rating; conditions: 100 = 100% disease control, 0 = no control
Procedure, shortened: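 Soybean seedlings were sprayed to run-off with test suspension (acetone 3% of volume, acetone/water 50/50, 250 ppm PEG400) and inoculated with rust spores one day later. Incubation: 24 h saturated atmosphere at 22° C, then 8 days growth chamber at 22° C; scores 0–100 relative to untreated controls.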

[1] = system: Puccinia recondita f. sp. tritici; experiment: Test B: test suspension sprayed on wheat seedlings one day before inoculation with Puccinia recondita f. sp. tritici spores (wheat leaf rust), disease rating; conditions: 100 = 100% disease control, 0 = no control
Procedure, shortened: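 Wheat seedlings were sprayed to run-off with compound suspended in 50/50 acetone/water containing 250 ppm PEG400, then inoculated with P. recondita f. sp. tritici spores the next day. Plants were held 24 h in saturated air at 20 °C, then 6 days in a growth chamber at 20 °C. Disease control was rated 0–100% relative to controls, with some entries run at 50 or 10 ppm.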

[2] = Phakopsora pachyrhizi, 50 ppm test suspension
[3] = Phakopsora pachyrhizi, 10 ppm test suspension

| SMILES | Test A rating (disease control) (Phakopsora pachyrhizi; 10 ppm test suspension) [%] | Test B rating (disease control) ([1]; 10 ppm test suspension) [%] | also measured |
| --- | --- | --- | --- |
| CCOC(=O)c1cnn(Cc2ccc(OCC3(C(F)(F)F)OCCO3)cc2)c1 [Compound 32, ethyl 1-[[4-[[2-(trifluoromethyl)-1,3-dioxolan-2-yl]methoxy]phenyl]methyl]-1H-pyrazole-4-carboxylate] |  |  | pest or weed control at 50 ppm (Uncinula necator): 100%; pest or weed control at 50 ppm (Phakopsora pachyrhizi; [2]): 100%; pest or weed control at 50 ppm ([1]; 50 ppm test suspension): 68% |
| CCOC(=O)c1cnn(Cc2ccc(O/C=C(\OCC)C(F)(F)F)cc2)c1 [Compound 64, ethyl 1-[[4-[[(1Z)-2-ethoxy-3,3,3-trifluoro-1-propen-1-yl]oxy]phenyl]methyl]-1H-pyrazole-4-carboxylate] |  |  | pest or weed control at 10 ppm (Uncinula necator; 10 ppm test suspension (double asterisk)): 100%; pest or weed control at 250 ppm (Phakopsora pachyrhizi; Phakopsora pachyrhizi, 250 ppm test suspension): 100%; pest or weed control at 250 ppm ([1]; 250 ppm test suspension): 99% |
| CC(C)COC(=O)c1cnn(Cc2ccc(OCC3(C(F)(F)F)OCCO3)cc2)c1 [Compound 126, 2-methylpropyl 1-[[4-[[2-(trifluoromethyl)-1,3-dioxolan-2-yl]methoxy]phenyl]methyl]-1H-pyrazole-4-carboxylate] |  |  | pest or weed control at 50 ppm (Uncinula necator): 100%; pest or weed control at 10 ppm (Phakopsora pachyrhizi; [3]): 100%; pest or weed control at 10 ppm ([1]; 10 ppm test suspension): 0% |
| O=C(OCC1CC1)c1cnn(Cc2ccc(OCC3(C(F)(F)F)OCCO3)cc2)c1 [Compound 127, cyclopropylmethyl 1-[[4-[[2-(trifluoromethyl)-1,3-dioxolan-2-yl]methoxy]phenyl]methyl]-1H-pyrazole-4-carboxylate] |  |  | pest or weed control at 50 ppm (Uncinula necator): 100%; pest or weed control at 10 ppm (Phakopsora pachyrhizi; [3]): 100%; pest or weed control at 10 ppm ([1]; 10 ppm test suspension): 0% |
| CC#CCOC(=O)c1cnn(Cc2cccc(O/C=C(\OCC)C(F)(F)F)c2)c1 [compound 300] | 100 | 0 |  |
| CCOC(=O)c1cnn(Cc2cccc(O/C=C(\OCC)C(F)(F)F)c2F)c1 [compound 301] |  |  | pest or weed control at 50 ppm (Phakopsora pachyrhizi; [2]): 100%; pest or weed control at 50 ppm ([1]; 50 ppm test suspension): 0% |
| CCOC(=O)c1cnn(Cc2cc(O/C=C(\OCC)C(F)(F)F)ccc2F)c1 [compound 302] |  |  | pest or weed control at 50 ppm (Phakopsora pachyrhizi; [2]): 99%; pest or weed control at 50 ppm ([1]; 50 ppm test suspension): 0% |
| CCOC(=O)c1cnn(Cc2cccc(O/C=C(\OCC)C(F)(F)F)c2C)c1 [compound 303] |  |  | pest or weed control at 50 ppm (Phakopsora pachyrhizi; [2]): 0%; pest or weed control at 50 ppm ([1]; 50 ppm test suspension): 0% |
| CCOC(=O)c1cnn(C(C)c2cccc(O/C=C(\OCC)C(F)(F)F)c2)c1 (centres unmarked) [compound 304] |  |  | Test A rating (disease control) (Phakopsora pachyrhizi; 50 ppm test suspension): 96%; Test B rating (disease control) ([1]; 50 ppm test suspension): 0% |
| O=Cc1cccc(OCC(O)(O)C(F)(F)F)c1 [compound 305] |  |  | pest or weed control at 10 ppm (Phakopsora pachyrhizi; [3]): 70%; pest or weed control at 10 ppm ([1]; 10 ppm test suspension): 0% |
| CCO/C(=C\Oc1ccc(Cc2ccnc(S(C)(=O)=O)n2)cc1)C(F)(F)F [compound 307] |  |  | Test A rating (disease control) (Phakopsora pachyrhizi; 50 ppm test suspension): 0%; Test B rating (disease control) ([1]; 50 ppm test suspension): 0% |
| CCO/C(=C\Oc1ccc(Cc2ccnc(SC)n2)cc1)C(F)(F)F [compound 308] |  |  | Test A rating (disease control) (Phakopsora pachyrhizi; 50 ppm test suspension): 25%; Test B rating (disease control) ([1]; 50 ppm test suspension): 0% |
| CCO/C(=C\Oc1ccc(CN2CCC(C(=O)OC)CC2)cc1)C(F)(F)F [compound 309] | 100 | 0 |  |
| CCO/C(=C\Oc1ccc(CN2CCC(C#N)CC2)cc1)C(F)(F)F [compound 311] | 0 | 0 |  |
| CCO/C(=C\Oc1ccc(CN2CCC(OC)CC2)cc1)C(F)(F)F [compound 312] | 0 | 0 |  |
| CCO/C(=C\Oc1ccc(Cc2ccnc(OCC[Si](C)(C)C)n2)cc1)C(F)(F)F [compound 313] |  |  | Test A rating (disease control) (Phakopsora pachyrhizi; 50 ppm test suspension): 0%; Test B rating (disease control) ([1]; 50 ppm test suspension): 0% |
| C[Si](C)(C)CCOc1nccc(Cc2ccc(OCC3(C(F)(F)F)OCCO3)cc2)n1 [compound 314] |  |  | Test A rating (disease control) (Phakopsora pachyrhizi; 50 ppm test suspension): 0%; Test B rating (disease control) ([1]; 50 ppm test suspension): 0% |
| CCOC(=O)c1cnn(-c2ccc(O/C=C(\OCC)C(F)(F)F)cc2)c1 [compound 316] |  |  | Test A rating (disease control) (Phakopsora pachyrhizi; 50 ppm test suspension): 100%; Test B rating (disease control) ([1]; 50 ppm test suspension): 9% |
| O=C(OC1CCC1)c1cnn(Cc2ccc(OCC3(C(F)(F)F)OCCO3)cc2)c1 [compound 318] | 100 | 0 |  |
| CCOC(=O)c1cnn(Cc2ccc(OC(F)(F)C3(C(F)(F)F)OCCO3)cc2)c1 [compound 319] |  |  | Test A rating (disease control) (Phakopsora pachyrhizi; 50 ppm test suspension): 100%; Test B rating (disease control) ([1]; 50 ppm test suspension): 41% |
| CCO/C(=C\Oc1cccc(Cn2cc(C(=O)O)cn2)c1)C(F)(F)F [compound 323] |  |  | Test A rating (disease control) (Phakopsora pachyrhizi; 50 ppm test suspension): 100%; Test B rating (disease control) ([1]; 50 ppm test suspension): 0% |
| CCCO/C(=C\Oc1cccc(Cn2cc(C(=O)OCC)cn2)c1)C(F)(F)F [compound 324] | 0 | 0 |  |

| SMILES | Test A rating (disease control) (Phakopsora pachyrhizi; 10 ppm test suspension) [%] | Test B rating (disease control) ([1]; 10 ppm test suspension) [%] | also measured |
| --- | --- | --- | --- |
| C#CCOC(=O)c1ccn(Cc2ccc(O/C=C(\OCC)C(F)(F)F)cc2)n1 [compound 325] | 100 | 0 |  |
| CCC#CCOC(=O)c1ccn(Cc2ccc(O/C=C(\OCC)C(F)(F)F)cc2)n1 [compound 326] | 100 | 0 |  |
| CCO/C(=C\Oc1ccc(Cn2ccc(C(=O)OC(C)C)n2)cc1)C(F)(F)F [compound 327] | 100 | 0 |  |
| CCO/C(=C\Oc1cccc(Cn2cc(C(=O)OC(C)C)cn2)c1)C(F)(F)F [compound 332] | 100 | 0 |  |
| C=CCOC(=O)c1cnn(Cc2cccc(O/C=C(\OCC)C(F)(F)F)c2)c1 [compound 333] | 100 | 0 |  |
| CCO/C(=C\Oc1cccc(Cn2cc(C(=O)OCC(C)C)cn2)c1)C(F)(F)F [compound 334] | 100 | 0 |  |
| C=C(C)COC(=O)c1cnn(Cc2cccc(O/C=C(\OCC)C(F)(F)F)c2)c1 [compound 335] | 100 | 0 |  |
| C#CCOC(=O)c1cnn(Cc2cccc(O/C=C(\OCC)C(F)(F)F)c2)c1 [compound 336] | 100 | 0 |  |
| CCO/C(=C\Oc1cccc(Cn2cc(C(=O)OCC(C)=O)cn2)c1)C(F)(F)F [compound 337] | 100 | 0 |  |
| CCO/C(=C\Oc1cccc(Cn2cc(C(=O)OCCCCl)cn2)c1)C(F)(F)F [compound 338] | 100 | 0 |  |
| CCCCOC(=O)c1cnn(Cc2cccc(O/C=C(\OCC)C(F)(F)F)c2)c1 [compound 339] | 100 | 0 |  |
| CCO/C(=C\Oc1cccc(Cn2cc(C(=O)OCCOC)cn2)c1)C(F)(F)F [compound 340] | 100 | 0 |  |
| CCO/C(=C\Oc1cccc(Cn2cc(C(=O)OCC3CC3)cn2)c1)C(F)(F)F [compound 341] | 100 | 0 |  |
| CCO/C(=C\Oc1cccc(Cn2cc(C(=O)OCC3CCC3)cn2)c1)C(F)(F)F [compound 342] | 100 | 0 |  |
| CCNC(=O)c1cnn(Cc2cccc(C/C=C(\OCC)C(F)(F)F)c2)c1 [compound 343] | 0 | 0 |  |
| CCCCOC(=O)c1ccn(Cc2ccc(O/C=C(\OCC)C(F)(F)F)cc2)n1 [compound 356] | 100 | 0 |  |
| CCO/C(=C\Oc1ccc(Cn2ccc(C(=O)OCC(C)C)n2)cc1)C(F)(F)F [compound 357] | 100 | 9 |  |
| C=C(C)COC(=O)c1ccn(Cc2ccc(O/C=C(\OCC)C(F)(F)F)cc2)n1 [compound 358] | 100 | 0 |  |
| CCO/C(=C\Oc1ccc(Cn2ccc(C(=O)OCC(C)=O)n2)cc1)C(F)(F)F [compound 359] | 100 | 0 |  |
| CCO/C(=C\Oc1ccc(Cn2ccc(C(=O)OCCOC)n2)cc1)C(F)(F)F [compound 360] | 100 | 0 |  |
| CCO/C(=C\Oc1ccc(Cn2ccc(C(=O)OCC3CCC3)n2)cc1)C(F)(F)F [compound 361] | 100 | 0 |  |
| CCO/C(=C\Oc1ccc(Cn2ccc(C(=O)OCCCCl)n2)cc1)C(F)(F)F [compound 362] | 100 | 0 |  |
